Source: US20240166669A1, “QUINAZOLINE AMINE DERIVATIVES AS KRAS INHIBITORS” (Nikang Therapeutics, Inc., priority 2021, published 2024)

Target: T1, K-Ras G12D (Homo sapiens, UniProt P01116, G12D)
T1 construct: AGS (Cobioer, CBP60476) cell lines which harbor KRAS G12D mutation; host or cells: AGS
Assay: p-ERK Cellular 2-Plate Assay (Biological Example 2)
Assay type: cell-based
Conditions: AGS cells (KRAS G12D), 3 h treatment, AlphaLISA p-ERK1/2, 2-plate; Biological Example 2 (unmarked values); read-out: AGS PERK EC50
Protocol: The ability of the compound of Formula (IIA′), (II′), or (II) or a pharmaceutically acceptable salt thereof (test compound) to inhibit K-Ras G12D activity was tested using AGS (Cobioer, CBP60476) cell lines which harbor KRAS G12D mutation as described below.
AGS (Cobioer, CBP60476) were seeded in 384-well plates and cultured overnight (10.000 cells per well 40 μl total volume). The following morning, cells were treated with test compound, with staring concentration at 10 μM and 3-fold dilution down to 0.5 nM for 3 h at 37° C., DMSO treatment served as control. p-ERK was then measured using AlphaLISA SureFire Ultra p-ERK1/2 (Thr202/Tyr204) Assay Kit (Perkin Elmer, cat #ALSU-PERK) following the manufacturer's instruction as follows.
Briefly, the culture medium was removed and 20 μl 1× lysis buffer was added to each well, followed by 30 minutes incubation on a plate shaker at room temperature. Then 10 μl of lysate was transferred to a white 384-well plate. Acceptor mixture was prepared according to manufacturer's instruction. 5 μl acceptor mixture was added to the cell lysate and the plate was wrapped with foil, spun at 500 rpm for 10 s, and incubated at RT for 60 min. Donor mixture was prepared under subdued light. 5 μl donor mixture was added to the cell lysate and the plate was spun at 500 rpm for 10s and incubated at RT for another 60 min. in the dark. Signal was then measured on a EnVision 2105 multimode plate reader. Percentage inhibition was calculated with DMSO treatment as 100% of signal, and IC50 was calculated by XLfit 5.5.x.

T1 sequence (P01116 1-188 isoform P01116-2 G12D): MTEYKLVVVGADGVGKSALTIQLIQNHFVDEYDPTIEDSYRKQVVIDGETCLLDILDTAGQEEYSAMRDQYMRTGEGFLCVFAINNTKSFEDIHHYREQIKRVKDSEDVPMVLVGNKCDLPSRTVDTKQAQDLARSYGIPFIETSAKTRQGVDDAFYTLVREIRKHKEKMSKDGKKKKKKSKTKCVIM

| EC50 | SMILES |
| --- | --- |
| 7 nM | C#Cc1c(F)ccc2cccc(-c3ncc4c(N5C[C@H]6CC[C@@H](C5)N6)nc(OCC56CCCN5CC(=C)C6)nc4c3F)c12 (stereo partly drawn) [Example 11, 4-((1R,5S)-3,8-diazabicyclo[3.2.1]octan-3-yl)-7-(8-ethynyl-7-fluoronaphthalen-1-yl)-8-fluoro-2-((2-methylenetetrahydro-TH-pyrrolizin-7a(5H)-yl)methoxy)pyrido[4,3-d]pyrimidine] |
| 1.1 nM | C#Cc1cccc2cc(O)cc(-c3ncc4c(N5CC6CCC(C5)N6)nc(OC[C@]56CCCN5[C@H]5c7cccnc7OCC5C6)nc4c3F)c12 (mixture of isomers) [Example 38] |
| 20 nM | C#Cc1cccc2cc(O)cc(-c3ncc4c(N5CC6CCC(C5)N6)nc(OCC56CCCN5Cc5cccc(F)c56)nc4c3F)c12 (centres unmarked) [Example 27, 4-(4-(3,8-diazabicyclo[3.2.1]octan-3-yl)-8-fluoro-2-((9-fluoro-2,3-dihydro-1H-pyrrolo[2,1-a]isoindol-9b(5H)-yl)-methoxy)pyrido[4,3-d]pyrimidin-7-yl)-5-ethynylnaphthalen-2-ol] |
| 0.25 nM | C#Cc1cccc2cc(O)cc(-c3ncc4c(N5CC6CCC(C5)N6)nc(OC[C@]56CCCN5[C@H]5c7ccccc7OCC5C6)nc4c3F)c12 (mixture of isomers) [Example 39] |
| 128 nM | C#Cc1cccc2cc(O)cc(-c3ncc4c(N5CC6CC(=C)C(C5)N6)nc(OCC56CCCN5CCC6)nc4c3F)c12 (centres unmarked) [Example 10, 5-ethynyl-4-(8-fluoro-4-(6-methylene-3,8-diazabicyclo[3.2.1]octan-3-yl)-2-((tetrahydro-1H-pyrrolizin-7a(5H)-yl)methoxy)pyrido[4,3-d]pyrimidin-7-yl)naphthalen-2-ol] |
| 320 nM | C#Cc1cccc2cc(O)cc(-c3ncc4c(N5C[C@H]6CC[C@@H](C5)N6)nc(OCC56CCCN5c5ccccc5C6)nc4c3F)c12 (stereo partly drawn) [Example 5, 4-(4-((1R,5S)-3,8-diazabicyclo[3.2.1]octan-3-yl)-2-((2,3-dihydro-1H-pyrrolo[1,2-a]-indol-9a(9H)-yl)methoxy)-8-fluoropyrido[4,3-d]pyrimidin-7-yl)-5-ethynylnaphthalen-2-ol] |
| 3.6 nM | C#Cc1cccc2cc(O)cc(-c3ncc4c(N5C[C@H]6CC[C@@H](C5)N6)nc(OC[C@@]56CC7COc8ccccc8C7N5C[C@H](F)C6)nc4c3F)c12 (stereo partly drawn) [Example 40, 4-(4-((1R,5S)-3,8-diazabicyclo[3.2.1]octan-3-yl)-8-fluoro-2-(((9R)-9-fluoro-6a,9,10,11a-tetrahydro-6H,7H-chromeno[3,4-b]pyrrolizin-7a(8H)-yl)methoxy)pyrido[4,3-d]pyrimidin-7-yl)-5-ethynylnaphthalen-2-ol] |
| 6.6 nM | C#Cc1cccc2cc(O)cc(-c3ncc4c(N5CC6CCC(C5)N6)nc(OC[C@]56CCCN5[C@H]5c7ccnn7CC5C6)nc4c3F)c12 (mixture of isomers) [Example 37] |
| 1.3 nM | C#Cc1cccc2cc(O)cc(-c3c(Cl)cc4c(N5C[C@H]6CC[C@@H](C5)N6)nc(OCC56CCCN5CC(=C)C6)nc4c3F)c12 (stereo partly drawn) [Example 56, 4-(4-((1R,5S)-3,8-diazabicyclo[3.2.1]octan-3-yl)-6-chloro-8-fluoro-2-((2-methylenetetrahydro-1H-pyrrolizin-7a(5H)-yl)methoxy)quinazolin-7-yl)-5-ethynylnaphthalen-2-ol] |
| 1 nM | C=C1CN2CCCC2(COc2nc(N3C[C@H]4CC[C@@H](C3)N4)c3cnc(-c4cc(O)cc5cccc(F)c45)c(F)c3n2)C1 (stereo partly drawn) [Example 22, 4-(4-((1R,5S)-3,8-diazabicyclo-[3.2.1]octan-3-yl)-8-fluoro-2-((2-methylenetetrahydro-1H-pyrrolizin-7a(5H)-yl)methoxy)pyrido[4,3-d]-pyrimidin-7-yl)-5-fluoronaphthalen-2-ol] |
| 46 nM | C#Cc1cccc2cc(O)cc(-c3ncc4c(N5CC6CCC(C5)N6)nc(OCC56CCCN5Cc5cccnc56)nc4c3F)c12 (centres unmarked) [Example 28, 4-(4-(3,8-diazabicyclo[3.2.1]octan-3-yl)-2-((8,9-dihydro-5H-pyrido[2,3-a]-pyrrolizin-9a(7H)-yl)methoxy)-8-fluoropyrido[4,3-d]pyrimidin-7-yl)-5-ethynylnaphthalen-2-ol] |
